Source: paper PMC4723341, “Ribonuclease H/DNA Polymerase HIV-1 Reverse Transcriptase Dual Inhibitor: Mechanistic Studies on the Allosteric Mode of Action of Isatin-Based Compound RMNC6” (PLoS ONE, 2016)

Key:
[1] = tested on: HIV-1 RT-associated RNase H activity, V106A RT; assay: RNase H activity assay, V106A RT; format: biochemical, HIV-1 group M subtype B; conditions: V106A RT
Experimental: (§1) HIV RT-associated RNase H activity was measured as described in 100 μL reaction volume containing 50 mM Tris-HCl buffer pH 7.8, 6 mM MgCl2, 1 mM dithiothreitol (DTT), 80 mM KCl, 0.25 μM hybrid RNA/DNA 5'-GAUCUGAGCCUGGGAGCU-Fluorescin-3' (HPLC, dry, QC: Mass Check) (available from Metabion) 5'-Dabcyl-AGCTCCCAGGCTCAGATC-3'(HPLC, dry, QC: Mass Check), increasing concentrations of inhibitors, whose dilution were made in water, and different amount of enzymes according to a linear range of dose-response curve: 20 ng of WT RT; 60 ng K103N RT; 37.5 ng V106A RT; 75 ng V108A RT; 5 ng Y181C RT; 50 ng Y188A RT; 30 ng Y188L RT; 100 ng E224A RT; 37.5 ng P225A RT; 20 ng P226A RT; 18 ng F227A RT; 30 ng L228A RT; 30 ng W229A RT; 10 ng M230A RT; 30 ng G231A RT; 62.5 ng N474A RT; 1 μg Y501A RT; 100 ng A502F RT; 37.5 ng A508V RT; 38 ng HIV-1 group O RT. The reaction mixture was incubated for 1 h at 37°C, stopped by addition of EDTA and products were measured with a multilabel counter plate reader Victor 3 (Perkin Elmer model 1420–051) equipped with filters for 490/528 nm (excitation/emission wavelength)

[2] = tested on: HIV-1 RT-associated RNase H activity, V108A RT; assay: RNase H activity assay, V108A RT; format: biochemical, HIV-1 group M subtype B; conditions: V108A RT
Experimental: as §1

HIV-2 RT = tested on: HIV-2 RT; parameters: method as in PMID 15741178; conditions: HIV-2 RT versus HIV-1 RT; cited from earlier work
[3] = target: T1, HIV-1 RT-associated RDDP activity, Y181C RT (Human immunodeficiency virus type 1 group M subtype B, UniProt P04585, Y768C); assay: RDDP activity assay, Y181C RT; format: biochemical, HIV-1 group M subtype B
T1 construct: The 1:1 ration between the p66/p51 subunits was also verified; made in house; host or cells: E. coli M15

[4] = target: T2, HIV-1 RT-associated RDDP activity, Y188L RT (Human immunodeficiency virus type 1 group M subtype B, UniProt P04585, Y775L); assay: RDDP activity assay, Y188L RT; format: biochemical, HIV-1 group M subtype B
T2 construct: The 1:1 ration between the p66/p51 subunits was also verified; made in house; host or cells: E. coli M15

[5] = target: T3, HIV-1 RT-associated RDDP activity, V106A RT (Human immunodeficiency virus type 1 group M subtype B, UniProt P04585, V693A); assay: biochemical; parameters: species or system HIV-1 group M subtype B
T3 construct: The 1:1 ration between the p66/p51 subunits was also verified; made in house; host or cells: E. coli M15

[6] = target: T4, HIV-1 RT-associated RDDP activity, V108A RT (Human immunodeficiency virus type 1 group M subtype B, UniProt P04585, V695A); assay: biochemical; parameters: species or system HIV-1 group M subtype B
T4 construct: The 1:1 ration between the p66/p51 subunits was also verified; made in house; host or cells: E. coli M15

[7] = target: T5, HIV-1 RT-associated RDDP activity, Y188A RT (Human immunodeficiency virus type 1 group M subtype B, UniProt P04585, Y775A); assay: biochemical; parameters: species or system HIV-1 group M subtype B
T5 construct: The 1:1 ration between the p66/p51 subunits was also verified; made in house; host or cells: E. coli M15

[8] = tested on: HIV-1 RT-associated RDDP activity, Y188A RT; assay: biochemical; parameters: species or system HIV-1 group M subtype B; conditions: Y188A RT
[9] = target: T6, HIV-1 RT-associated RDDP activity, P225A RT (Human immunodeficiency virus type 1 group M subtype B, UniProt P04585, P812A); assay: biochemical; parameters: species or system HIV-1 group M subtype B
T6 construct: The 1:1 ration between the p66/p51 subunits was also verified; made in house; host or cells: E. coli M15

[10] = target: T7, HIV-1 RT-associated RDDP activity, P226A RT (Human immunodeficiency virus type 1 group M subtype B, UniProt P04585, P813A); assay: biochemical; parameters: species or system HIV-1 group M subtype B
T7 construct: The 1:1 ration between the p66/p51 subunits was also verified; made in house; host or cells: E. coli M15

[11] = target: T8, HIV-1 RT-associated RDDP activity, L228A RT (Human immunodeficiency virus type 1 group M subtype B, UniProt P04585, L815A); assay: biochemical; parameters: species or system HIV-1 group M subtype B
T8 construct: The 1:1 ration between the p66/p51 subunits was also verified; made in house; host or cells: E. coli M15

[12] = target: T9, HIV-1 RT-associated RDDP activity, W229A RT (Human immunodeficiency virus type 1 group M subtype B, UniProt P04585, W816A); assay: biochemical; parameters: species or system HIV-1 group M subtype B
T9 construct: The 1:1 ration between the p66/p51 subunits was also verified; made in house; host or cells: E. coli M15

[13] = target: T10, HIV-1 RT-associated RDDP activity, G231A RT (Human immunodeficiency virus type 1 group M subtype B, UniProt P04585, G818A); assay: biochemical; parameters: species or system HIV-1 group M subtype B
T10 construct: The 1:1 ration between the p66/p51 subunits was also verified; made in house; host or cells: E. coli M15

[14] = target: T11, HIV-1 RT-associated RDDP activity, N474A RT (Human immunodeficiency virus type 1 group M subtype B, UniProt P04585, N1061A); assay: biochemical; parameters: species or system HIV-1 group M subtype B
T11 construct: The 1:1 ration between the p66/p51 subunits was also verified; made in house; host or cells: E. coli M15

[15] = target: T12, HIV-1 RT-associated RDDP activity, Y501A RT (Human immunodeficiency virus type 1 group M subtype B, UniProt P04585, Y1088A); assay: biochemical; parameters: species or system HIV-1 group M subtype B
T12 construct: The 1:1 ration between the p66/p51 subunits was also verified; made in house; host or cells: E. coli M15

[16] = UV spectra in the absence and presence of magnesium (chelating potential); format: physicochemical; conditions: in the presence of 6 mM MgCl2
From the text: Since the mode of action of previously identified dual RT inhibitors was not determined, we decided to investigate the mechanism of RT inhibition by RMNC6 in comparison with available RNase H inhibitors and NNRTIs. […] RNase H inhibitors such as vynologous ureas (VUs) are known to destabilize the RT heterodimer by binding to an allosteric pocket in the RNase H domain at the interface between p66 and p51 subunits.

[17] = target: DNA polymerase activity of HIV-1 group O RT and wild-type and mutant HIV-1 group M subtype B RTs; assay: RDDP assays, HIV-1 group O RT and wild-type and mutant HIV-1 group M subtype B RTs together; format: biochemical; conditions: wild-type and mutant (K103N, Y181C, Y188L) group M subtype B RTs, read-out: IC50 RDDP, range over all enzymes

Structure (SMILES): CC(C)c1ccc(O)c(=O)c(O)c1 [BTP, β-thujaplicinol, reference compound]
- Fold of increase of RNase H IC50 with respect to wt RT [1]: 0.8
- Fold of increase of RNase H IC50 with respect to wt RT [2]: 0.9
- Times less susceptible than the HIV-1 enzyme (HIV-2 RT): about 3.7

Structure (SMILES): N#Cc1ccc(-c2csc(NN=C3C(=O)Nc4ccccc43)n2)cc1 [RMNC6, (Z)-4-(2-(2-(2-oxoindolin-3-ylidene)hydrazinyl)thiazol-4-yl)benzonitrile]
- IC50 [3]: 5.4 ± 0.3 µM
- IC50 [4]: 16.5 ± 3.7 µM
- IC50 [5]: 25.1 ± 2.3 µM
- Fold of increase of RDDP IC50 with respect to wt RT ([5]; V106A RT): 2.5
- IC50 [6]: 33 ± 5.2 µM
- Fold of increase of RDDP IC50 with respect to wt RT ([6]; V108A RT): 3.4
- IC50 [7]: 20.9 ± 4 µM
- Fold of increase of RDDP IC50 with respect to wt RT [8]: 2.1
- IC50 [9]: 3.1 ± 0.3 µM
- Fold of increase of RDDP IC50 with respect to wt RT ([9]; P225A RT): 0.3
- IC50 [10]: 18.9 ± 0.7 µM
- Fold of increase of RDDP IC50 with respect to wt RT ([10]; P226A RT): 1.9
- IC50 [11]: 13.1 ± 1.9 µM
- IC50 [12]: 15.4 ± 2.8 µM
- Fold of increase of RDDP IC50 with respect to wt RT ([12]; W229A RT): 1.6
- IC50 [13]: 10.8 ± 2.4 µM
- Fold of increase of RDDP IC50 with respect to wt RT ([13]; G231A RT): 1.1
- IC50 [14]: 12.7 ± 1.7 µM
- Fold of increase of RDDP IC50 with respect to wt RT ([14]; N474A RT): 1.3
- IC50 [15]: 6.6 ± 0.1 µM
- Fold of increase of RDDP IC50 with respect to wt RT ([15]; Y501A RT): 0.7
- Shift of maximum of absorbance (UV spectra) [16]: did not shift
- IC50 [17]: 5.4 to 20.1 µM
